Tests used:
[1] = system: sugar beet; test: Test B pre/postemergence sugar beet; type: in vivo, Beta vulgaris
Summary of the method: (§1)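 Test chemicals in a non-phytotoxic solvent mixture with surfactant were sprayed preemergence onto planted seeds and postemergence onto plants 2 to 18 cm tall (1- to 4-leaf stage). After twelve to sixteen days in a greenhouse, injury was visually rated against untreated controls from 0 (no effect) to 10 (complete control).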

[2] = system: pigweed; test: Test B pre/postemergence pigweed; type: in vivo, Amaranthus retroflexus
Summary of the method: as §1

[3] = system: soybean; test: Test B pre/postemergence soybean; type: in vivo, Glycine max
Summary of the method: as §1

[4] = system: rape; test: Test B pre/postemergence rape; type: in vivo, Brassica napus
Summary of the method: as §1

[5] = Postemergence, Rate 250 g/ha, scale 0 to 10, 0 no effect, 10 complete control
[6] = Postemergence, Rate 1000 g/ha, scale 0 to 10 (0 no effect, 10 complete control)
[7] = Preemergence, Rate 125 g/ha, scale 0 to 10 (0 no effect, 10 complete control)
[8] = Preemergence, Rate 250 g/ha, scale of 0 to 10 where 0 is no effect and 10 is complete control
[9] = Preemergence, Rate 500 g/ha, scale 0 (no effect) to 10 (complete control)
[10] = Rate 125 g/ha, Postemergence, scale 0 to 10, 0 no effect, 10 complete control
[11] = Rate 1000 g/ha, Preemergence, scale 0 to 10 (0 no effect, 10 complete control)
[12] = Rate 500 g/ha, Postemergence, 0 to 10 scale (0 no effect, 10 complete control)
[13] = Postemergence, Rate 62 g/ha, scale 0 to 10, 0 is no effect, 10 is complete control
[14] = Preemergence, Rate 62 g/ha, scale 0 to 10, 0 is no effect, 10 is complete control
[15] = Preemergence, Rate 62 g/ha, scale 0 to 10 (0 no effect, 10 complete control)
[16] = Rate 500 g/ha, Postemergence, scale 0 to 10, 0 no effect, 10 complete control

| Structure (SMILES) | Sugarbeets plant response rating [1, 5] | Plant response rating, Sugarbeets [1, 7] | Plant response rating, Sugarbeets [1, 8] | Sugarbeets plant response rating [1, 9] | Sugarbeets plant response rating [1, 10] | Redroot pigweed plant response rating [2, 5] | Plant response rating, Redroot pigweed [2, 7] | Plant response rating, Redroot pigweed [2, 8] | Redroot pigweed plant response rating [2, 9] | Redroot pigweed plant response rating [2, 10] | Soybean plant response rating [3, 5] | Plant response rating, Soybean [3, 7] | Plant response rating, Soybean [3, 8] | Soybean plant response rating [3, 9] | Soybean plant response rating [3, 10] | Rape plant response rating [4, 5] | Plant response rating, Rape [4, 7] | Plant response rating, Rape [4, 8] | Rape plant response rating [4, 9] | Rape plant response rating [4, 10] | further results |
| --- | --- | --- | --- | --- | --- | --- | --- | --- | --- | --- | --- | --- | --- | --- | --- | --- | --- | --- | --- | --- | --- |
| CC(C)N(C(=O)n1oc(=O)n(-c2ccccc2Cl)c1=O)c1ccc(F)cc1 [Compound 8] | 0 | 0 | 0 | 0 | 0 | 0 | 4 | 5 | 5 | 0 | 4 | 0 | 0 | 0 | 3 | 0 | 0 | 0 | 0 | 0 | Sugarbeets plant response rating [1, 6]: 2; Plant response rating, Sugarbeets [1, 11]: 0; Redroot pigweed plant response rating [2, 6]: 5; Redroot pigweed plant response rating [2, 12]: 0; Plant response rating, Redroot pigweed [2, 11]: 7; Soybean plant response rating [3, 6]: 5; Plant response rating, Soybean [3, 11]: 0; Rape plant response rating [4, 6]: 0; Rape plant response rating [4, 12]: 0; Plant response rating, Rape [4, 11]: 0 |
| CCN(CC)C(=O)n1oc(=O)n(-c2ccc(OC(F)(F)F)cc2)c1=O [Compound 12] | 0 | 0 | 0 | 0 | 0 | 0 | 0 | 0 | 0 | 0 | 0 | 0 | 0 | 0 | 0 | 0 | 0 | 0 | 0 | 0 | Sugarbeets plant response rating [1, 6]: 0; Plant response rating, Sugarbeets [1, 11]: 0; Redroot pigweed plant response rating [2, 6]: 0; Redroot pigweed plant response rating [2, 12]: 0; Plant response rating, Redroot pigweed [2, 11]: 0; Soybean plant response rating [3, 6]: 1; Plant response rating, Soybean [3, 11]: 0; Rape plant response rating [4, 6]: 0; Rape plant response rating [4, 12]: 0; Plant response rating, Rape [4, 11]: 0 |
| Cc1ccccc1-n1c(=O)on(C(=O)N(c2ccc(F)cc2F)C(C)C)c1=O [Compound 25] | 0 | 0 | 0 | 2 | 0 | 0 | 0 | 8 | 8 | 0 | 3 | 0 | 0 | 0 | 3 | 0 | 0 | 0 | 0 | 0 | Sugarbeets plant response rating [1, 13]: 0; Plant response rating, Sugarbeets [1, 14]: 0; Redroot pigweed plant response rating [2, 13]: 0; Plant response rating, Redroot pigweed [2, 14]: 0; Redroot pigweed plant response rating [2, 12]: 4; Soybean plant response rating [3, 13]: 2; Plant response rating, Soybean [3, 14]: 0; Rape plant response rating [4, 13]: 0; Plant response rating, Rape [4, 14]: 0; Rape plant response rating [4, 12]: 0 |
| Cc1ccccc1-n1c(=O)on(C(=O)N(c2cc(F)ccc2F)C(C)C)c1=O [Compound 68] | 0 | 0 | 0 | 0 | 0 | 0 | 2 | 7 | 10 | 0 | 3 | 0 | 0 | 0 | 2 | 0 | 0 | 2 | 6 | 0 | Sugarbeets plant response rating [1, 13]: 0; Sugarbeets plant response rating [1, 15]: 0; Sugarbeets plant response rating [1, 16]: 3; Redroot pigweed plant response rating [2, 13]: 0; Redroot pigweed plant response rating [2, 15]: 0; Redroot pigweed plant response rating [2, 16]: 0; Soybean plant response rating [3, 13]: 1; Soybean plant response rating [3, 15]: 0; Soybean plant response rating [3, 16]: 3; Rape plant response rating [4, 13]: 0; Rape plant response rating [4, 15]: 0; Rape plant response rating [4, 16]: 0 |
| CCN(C(=O)n1oc(=O)n(Cc2cccs2)c1=O)C1CCCCC1 [Compound 82] | 0 | 0 | 0 | 0 | 0 | 0 | 0 | 0 | 0 | 0 | 0 | 0 | 0 | 0 | 0 | 0 | 0 | 0 | 0 | 0 | Sugarbeets plant response rating [1, 13]: 0; Sugarbeets plant response rating [1, 15]: 0; Sugarbeets plant response rating [1, 16]: 2; Redroot pigweed plant response rating [2, 13]: 0; Redroot pigweed plant response rating [2, 15]: 0; Redroot pigweed plant response rating [2, 16]: 0; Soybean plant response rating [3, 13]: 0; Soybean plant response rating [3, 15]: 0; Soybean plant response rating [3, 16]: 1; Rape plant response rating [4, 13]: 0; Rape plant response rating [4, 15]: 0; Rape plant response rating [4, 16]: 0 |

— US6737383B1, “Herbicidal oxadiazolidines” (priority 1999, dated 2004)
